Data published in patent US11572369B2, “Bicyclic pyridine compositions and methods of using the same for cancer therapy” (UNIVERSITY OF SOUTH CAROLINA, priority 2019, dated 2023).

Experiments:
Test in all cases: KINOMEscan
Type in all cases: binding
Details in all cases: 2000 nM
MARK1 = MARK1 (Homo sapiens, UniProt Q9P0L2)
IRAK1 = target: T1, IRAK1 (Homo sapiens, UniProt P51617)
T1 construct: DNA label (qPCR read-out); purchased KINOMEscan (DiscoveRx) ScanMAX panel

STK36 = target: T2, STK36 (Homo sapiens, UniProt Q9NRP7)
T2 construct: DNA label (for qPCR read-out); purchased DiscoveRx (KINOMEscan scanMAX panel, contract assay)

CAMK1G = target: T3, CAMK1G (Homo sapiens, UniProt Q96NX5)
T3 construct: DNA label (qPCR read-out); purchased KINOMEscan (ScanMAX panel service)

[1] = target: ABL1(T315I)-phosphorylated (Homo sapiens, UniProt P00519, T315I)
PRKD3 = target: T4, PRKD3 (Homo sapiens, UniProt O94806)
T4 construct: purchased DiscoveRx (KINOMEscan scanMAX panel)

GRK3 = target: T5, GRK3 (Homo sapiens, UniProt P35626)
T5 construct: DNA label (for qPCR read-out); purchased DiscoveRx (KINOMEscan scanMAX panel, contract assay)

TSSK1B = target: T6, TSSK1B (Homo sapiens, UniProt Q9BXA7)
T6 construct: DNA label (for qPCR read-out); purchased DiscoveRx (KINOMEscan scanMAX panel)

CLK2 = target: T7, CLK2 (Homo sapiens, UniProt P49760)
T7 construct: DNA label (for qPCR read-out); purchased DiscoveRx (KINOMEscan scanMAX service)

JNK1 = target: T8, JNK1 (Homo sapiens, UniProt P45983)
T8 construct: DNA label (for qPCR read-out); purchased DiscoveRx (KINOMEscan scanMAX panel)

FLT3(D835H) = target: T9, FLT3(D835H) (Homo sapiens, UniProt P36888, D835H)
T9 construct: purchased DiscoveRx (KINOMEscan scanMAX panel)

MKNK1 = target: T10, MKNK1 (Homo sapiens, UniProt Q9BUB5)
T10 construct: DNA label (qPCR read-out); purchased KINOMEscan scanMAX panel (DiscoveRx)

MKNK2 = target: T11, MKNK2 (Homo sapiens, UniProt Q9HBH9)
T11 construct: DNA label (qPCR read-out); purchased KINOMEscan scanMAX panel (DiscoveRx)

ALK(C1156Y) = target: T12, ALK(C1156Y) (Homo sapiens, UniProt Q9UM73, C1156Y)
T12 construct: DNA label (qPCR read-out); purchased KINOMEscan scanMAX panel (DiscoveRx)

MAP3K4 = MAP3K4 (Homo sapiens, UniProt Q9Y6R4)
AKT1 = target: T13, AKT1 (Homo sapiens, UniProt P31749)
T13 construct: purchased DiscoveRx (KINOMEscan scanMAX panel, service)

[2] = target: T14, (Homo sapiens, UniProt P20794)
T14 construct: DNA label (qPCR read-out); purchased DiscoverX (KINOMEscan service)

[3] = target: ABL1(Q252H)-nonphosphorylated (Homo sapiens, UniProt P00519, Q252H)
CSNK1A1L = target: T15, CSNK1A1L (Homo sapiens, UniProt Q8N752)
T15 construct: DNA label; purchased DiscoveRx (KINOMEscan scanMAX panel)

KIT(A829P) = target: T16, KIT(A829P) (Homo sapiens, UniProt P10721, A829P)
T16 construct: DNA label (for qPCR read-out); purchased DiscoveRx (KINOMEscan scanMAX panel)

ACVR1 = target: T17, ACVR1 (Homo sapiens, UniProt Q04771)
T17 construct: purchased DiscoveRx (KINOMEscan scanMAX panel, service)

p38-gamma = target: T18, p38-gamma (Homo sapiens, UniProt P53778)
T18 construct: purchased DiscoverX (KINOMEscan service)

NEK1 = target: T19, NEK1 (Homo sapiens, UniProt Q96PY6)
T19 construct: DNA label (for qPCR read-out); purchased KINOMEscan scanMAX panel (DiscoveRx)

EGFR(L747-T751del, Sins) = target: T20, EGFR(L747-T751del, Sins) (Homo sapiens, UniProt P00533, DEL747-750/T751S)
T20 construct: purchased DiscoveRx (KINOMEscan scanMAX panel)

PYK2 = target: T21, PYK2 (Homo sapiens, UniProt Q14289)
T21 construct: purchased DiscoveRx (KINOMEscan scanMAX panel)

VPS34 = target: T22, VPS34 (Homo sapiens, UniProt Q8NEB9)
T22 construct: DNA label (for qPCR read-out); purchased DiscoveRx (KINOMEscan scanMAX panel)

TNK2 = target: T23, TNK2 (Homo sapiens, UniProt Q07912)
T23 construct: DNA label (qPCR read-out); purchased KINOMEscan (DiscoveRx) ScanMAX panel

FLT3(K663Q) = target: T24, FLT3(K663Q) (Homo sapiens, UniProt P36888, K663Q)
T24 construct: purchased KINOMEscan (DiscoveRx)

GCN2(Kin.Dom.2, S808G) = target: T25, GCN2(Kin.Dom.2, S808G) (Homo sapiens, UniProt Q9P2K8, S808G)
T25 construct: GCN2(Kin.Dom.2, S808G); purchased KINOMEscan (DiscoveRx)

SRPK1 = target: T26, SRPK1 (Homo sapiens, UniProt Q96SB4)
T26 construct: purchased KINOMEscan (DiscoveRx)

NIK = target: T27, NIK (Homo sapiens, UniProt Q99558)
T27 construct: DNA label (qPCR read-out); purchased KINOMEscan (ScanMAX panel service)

CHEK1 = target: T28, CHEK1 (Homo sapiens, UniProt O14757)
T28 construct: DNA label (for qPCR read-out); purchased DiscoveRx (KINOMEscan scanMAX service)

PIK3CA = target: T29, PIK3CA (Homo sapiens, UniProt P42336)
T29 construct: DNA label (for qPCR read-out); purchased DiscoveRx (KINOMEscan scanMAX service)

CSNK1D = target: T30, CSNK1D (Homo sapiens, UniProt P48730)
T30 construct: DNA label (qPCR read-out); purchased DiscoverX (assay service)

BMX = target: T31, BMX (Homo sapiens, UniProt P51813)
T31 construct: DNA label (for qPCR read-out); purchased KINOMEscan scanMAX panel (DiscoveRx)

T21 sequence (Q14289 whole entry): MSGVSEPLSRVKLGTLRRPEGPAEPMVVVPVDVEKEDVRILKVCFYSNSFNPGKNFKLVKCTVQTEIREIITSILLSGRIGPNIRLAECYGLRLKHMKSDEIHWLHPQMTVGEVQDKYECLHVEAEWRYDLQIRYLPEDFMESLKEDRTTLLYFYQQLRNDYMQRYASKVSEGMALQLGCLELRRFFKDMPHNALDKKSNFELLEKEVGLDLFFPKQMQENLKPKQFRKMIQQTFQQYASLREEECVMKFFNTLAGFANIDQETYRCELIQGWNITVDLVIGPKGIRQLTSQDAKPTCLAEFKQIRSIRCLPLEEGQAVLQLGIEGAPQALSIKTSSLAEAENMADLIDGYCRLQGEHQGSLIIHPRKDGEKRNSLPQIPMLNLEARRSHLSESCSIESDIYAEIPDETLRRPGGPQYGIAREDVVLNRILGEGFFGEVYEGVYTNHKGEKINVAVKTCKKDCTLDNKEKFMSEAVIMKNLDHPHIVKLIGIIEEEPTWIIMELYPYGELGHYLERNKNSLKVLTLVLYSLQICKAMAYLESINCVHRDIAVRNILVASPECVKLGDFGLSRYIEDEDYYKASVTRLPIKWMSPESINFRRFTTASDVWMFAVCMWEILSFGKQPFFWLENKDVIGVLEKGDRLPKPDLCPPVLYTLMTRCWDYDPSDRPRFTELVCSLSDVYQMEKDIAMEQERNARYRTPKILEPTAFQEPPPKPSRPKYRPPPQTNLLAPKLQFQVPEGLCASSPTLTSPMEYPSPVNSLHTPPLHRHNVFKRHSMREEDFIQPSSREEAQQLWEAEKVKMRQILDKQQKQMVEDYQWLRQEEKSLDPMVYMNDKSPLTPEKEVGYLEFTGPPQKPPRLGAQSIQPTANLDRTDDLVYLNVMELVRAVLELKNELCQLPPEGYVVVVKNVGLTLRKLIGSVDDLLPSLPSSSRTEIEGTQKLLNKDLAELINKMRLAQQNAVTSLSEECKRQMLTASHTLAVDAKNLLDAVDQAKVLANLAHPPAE
T2 sequence (Q9NRP7 whole entry): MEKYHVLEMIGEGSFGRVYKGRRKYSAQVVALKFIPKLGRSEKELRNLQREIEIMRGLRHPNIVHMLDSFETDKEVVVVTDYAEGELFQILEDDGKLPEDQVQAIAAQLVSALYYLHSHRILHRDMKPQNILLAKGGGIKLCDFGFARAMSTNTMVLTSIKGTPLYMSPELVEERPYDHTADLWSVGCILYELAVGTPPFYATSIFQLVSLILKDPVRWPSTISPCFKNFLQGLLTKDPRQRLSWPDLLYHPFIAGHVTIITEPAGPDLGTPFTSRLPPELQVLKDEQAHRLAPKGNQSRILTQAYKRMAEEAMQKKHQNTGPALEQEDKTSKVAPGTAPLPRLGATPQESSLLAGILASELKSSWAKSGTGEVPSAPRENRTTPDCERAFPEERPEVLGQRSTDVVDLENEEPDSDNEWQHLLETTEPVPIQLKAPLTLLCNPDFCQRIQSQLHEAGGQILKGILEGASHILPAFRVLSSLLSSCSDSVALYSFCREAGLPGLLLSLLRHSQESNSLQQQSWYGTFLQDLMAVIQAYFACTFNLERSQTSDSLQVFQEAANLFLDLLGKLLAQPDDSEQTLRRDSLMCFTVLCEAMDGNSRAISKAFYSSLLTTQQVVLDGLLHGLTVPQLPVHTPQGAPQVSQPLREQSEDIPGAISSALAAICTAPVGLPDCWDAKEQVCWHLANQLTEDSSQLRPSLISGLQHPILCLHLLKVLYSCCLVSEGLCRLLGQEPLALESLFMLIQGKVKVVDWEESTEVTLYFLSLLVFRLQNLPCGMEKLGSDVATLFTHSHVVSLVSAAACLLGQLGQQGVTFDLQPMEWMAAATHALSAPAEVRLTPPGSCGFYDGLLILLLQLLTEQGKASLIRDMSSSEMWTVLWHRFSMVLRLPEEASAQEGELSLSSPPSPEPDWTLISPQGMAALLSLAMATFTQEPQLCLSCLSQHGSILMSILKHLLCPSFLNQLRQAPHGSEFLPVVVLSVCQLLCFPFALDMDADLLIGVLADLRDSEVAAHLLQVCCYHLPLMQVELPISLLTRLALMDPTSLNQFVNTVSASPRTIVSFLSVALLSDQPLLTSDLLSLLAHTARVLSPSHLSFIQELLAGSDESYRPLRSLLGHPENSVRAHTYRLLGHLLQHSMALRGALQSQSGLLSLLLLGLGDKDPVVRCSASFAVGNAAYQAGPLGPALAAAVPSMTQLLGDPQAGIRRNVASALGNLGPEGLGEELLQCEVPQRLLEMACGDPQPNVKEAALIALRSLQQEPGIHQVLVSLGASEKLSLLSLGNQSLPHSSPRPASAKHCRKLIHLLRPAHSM
T25 sequence (Q9P2K8 590-1001 S808G limits assumed): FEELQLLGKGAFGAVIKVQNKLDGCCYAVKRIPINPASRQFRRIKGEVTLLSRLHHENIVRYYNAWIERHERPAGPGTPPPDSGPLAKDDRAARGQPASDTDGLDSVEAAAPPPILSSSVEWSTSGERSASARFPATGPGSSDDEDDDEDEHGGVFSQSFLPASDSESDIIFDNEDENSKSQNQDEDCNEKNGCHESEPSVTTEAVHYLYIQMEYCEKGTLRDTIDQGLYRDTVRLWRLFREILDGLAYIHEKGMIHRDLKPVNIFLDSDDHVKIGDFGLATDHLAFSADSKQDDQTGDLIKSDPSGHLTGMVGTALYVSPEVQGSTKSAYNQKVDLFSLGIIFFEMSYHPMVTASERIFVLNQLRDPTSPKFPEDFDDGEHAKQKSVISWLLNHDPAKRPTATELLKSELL
T12 sequence (Q9UM73 19-1620 C1156Y): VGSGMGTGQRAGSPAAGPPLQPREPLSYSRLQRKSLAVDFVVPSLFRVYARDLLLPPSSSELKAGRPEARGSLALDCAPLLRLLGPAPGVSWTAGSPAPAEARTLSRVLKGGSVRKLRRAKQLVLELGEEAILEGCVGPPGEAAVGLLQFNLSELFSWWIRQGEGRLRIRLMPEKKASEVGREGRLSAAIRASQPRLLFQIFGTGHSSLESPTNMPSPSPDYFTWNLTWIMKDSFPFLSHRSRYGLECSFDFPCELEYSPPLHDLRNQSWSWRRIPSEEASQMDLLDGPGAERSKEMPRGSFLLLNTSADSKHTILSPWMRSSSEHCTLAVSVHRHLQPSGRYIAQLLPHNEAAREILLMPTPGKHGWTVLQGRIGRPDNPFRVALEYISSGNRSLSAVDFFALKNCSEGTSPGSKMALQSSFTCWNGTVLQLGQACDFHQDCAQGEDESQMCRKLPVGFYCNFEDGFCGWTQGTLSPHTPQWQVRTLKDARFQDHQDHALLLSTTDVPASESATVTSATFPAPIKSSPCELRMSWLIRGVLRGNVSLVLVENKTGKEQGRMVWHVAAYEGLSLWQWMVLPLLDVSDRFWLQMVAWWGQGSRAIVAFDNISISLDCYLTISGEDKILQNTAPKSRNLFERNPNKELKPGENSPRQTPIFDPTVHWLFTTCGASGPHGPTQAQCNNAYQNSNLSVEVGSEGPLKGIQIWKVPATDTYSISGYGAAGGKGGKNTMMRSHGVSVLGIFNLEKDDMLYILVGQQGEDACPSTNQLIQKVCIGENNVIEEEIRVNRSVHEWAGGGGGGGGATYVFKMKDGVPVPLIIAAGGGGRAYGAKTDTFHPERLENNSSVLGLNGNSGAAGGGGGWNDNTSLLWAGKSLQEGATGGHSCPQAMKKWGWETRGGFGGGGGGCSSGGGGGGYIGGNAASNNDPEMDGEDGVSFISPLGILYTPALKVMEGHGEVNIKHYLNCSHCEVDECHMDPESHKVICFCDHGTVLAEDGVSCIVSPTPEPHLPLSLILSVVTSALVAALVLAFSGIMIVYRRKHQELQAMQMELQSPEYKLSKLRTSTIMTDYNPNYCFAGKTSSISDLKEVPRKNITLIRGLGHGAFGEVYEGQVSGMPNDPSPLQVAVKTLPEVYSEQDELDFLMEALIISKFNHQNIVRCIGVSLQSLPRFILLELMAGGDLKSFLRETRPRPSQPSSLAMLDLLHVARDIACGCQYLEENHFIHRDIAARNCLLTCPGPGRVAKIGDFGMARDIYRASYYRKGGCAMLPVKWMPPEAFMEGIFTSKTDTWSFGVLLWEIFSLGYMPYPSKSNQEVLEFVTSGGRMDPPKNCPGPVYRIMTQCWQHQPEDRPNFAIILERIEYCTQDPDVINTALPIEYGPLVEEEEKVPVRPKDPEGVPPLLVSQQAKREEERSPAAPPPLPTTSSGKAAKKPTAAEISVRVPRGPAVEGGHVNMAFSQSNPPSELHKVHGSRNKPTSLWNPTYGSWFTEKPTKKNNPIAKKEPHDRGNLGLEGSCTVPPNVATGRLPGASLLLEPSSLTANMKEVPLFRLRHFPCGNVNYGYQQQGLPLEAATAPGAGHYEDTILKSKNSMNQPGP
T6 sequence (Q9BXA7 whole entry): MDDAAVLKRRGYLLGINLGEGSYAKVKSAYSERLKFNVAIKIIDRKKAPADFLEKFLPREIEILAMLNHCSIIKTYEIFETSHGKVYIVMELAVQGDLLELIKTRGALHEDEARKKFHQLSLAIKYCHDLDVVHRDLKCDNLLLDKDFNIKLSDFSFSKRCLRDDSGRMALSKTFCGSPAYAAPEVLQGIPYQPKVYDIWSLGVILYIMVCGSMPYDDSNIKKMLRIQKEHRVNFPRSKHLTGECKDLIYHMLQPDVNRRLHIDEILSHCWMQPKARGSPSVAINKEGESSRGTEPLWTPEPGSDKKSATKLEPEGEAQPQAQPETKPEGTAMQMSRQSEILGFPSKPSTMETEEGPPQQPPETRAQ
T15 sequence (Q8N752 whole entry): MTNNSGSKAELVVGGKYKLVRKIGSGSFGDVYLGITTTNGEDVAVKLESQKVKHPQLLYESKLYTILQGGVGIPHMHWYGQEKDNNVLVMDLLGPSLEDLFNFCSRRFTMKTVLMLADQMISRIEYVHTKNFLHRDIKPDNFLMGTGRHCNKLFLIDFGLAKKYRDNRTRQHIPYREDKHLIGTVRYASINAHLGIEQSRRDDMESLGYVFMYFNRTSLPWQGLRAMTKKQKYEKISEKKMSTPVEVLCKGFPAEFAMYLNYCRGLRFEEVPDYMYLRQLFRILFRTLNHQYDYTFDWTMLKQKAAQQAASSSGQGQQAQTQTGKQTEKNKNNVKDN

Compound | % Ctrl (MARK1) [% Ctrl] | % Ctrl (IRAK1) [% Ctrl] | % Ctrl (STK36) [% Ctrl] | % Ctrl (CAMK1G) [% Ctrl] | % Ctrl [1] [% Ctrl] | % Ctrl (PRKD3) [% Ctrl] | % Ctrl (GRK3) [% Ctrl] | % Ctrl (TSSK1B) [% Ctrl] | % Ctrl (CLK2) [% Ctrl] | % Ctrl (JNK1) [% Ctrl] | % Ctrl (FLT3(D835H)) [% Ctrl] | % Ctrl (MKNK1) [% Ctrl] | % Ctrl (MKNK2) [% Ctrl] | % Ctrl (ALK(C1156Y)) [% Ctrl] | % Ctrl (MAP3K4) [% Ctrl] | % Ctrl (AKT1) [% Ctrl] | % Ctrl [2] [% Ctrl] | % Ctrl [3] [% Ctrl] | % Ctrl (CSNK1A1L) [% Ctrl] | % Ctrl (KIT(A829P)) [% Ctrl] | other results
[2H]C([2H])([2H])N(C(=O)c1ccc(N2CCCN(c3ccnc4sc(C(N)=O)c(N)c34)CC2)cc1)C([2H])([2H])[2H] [15u_D6, 3-amino-4-(4-(4-(bis(methyl-d3)carbamoyl)phenyl)-1,4-diazepan-1-yl)thieno[2,3-b]pyridine-2-carboxamide] | 100 | 84 | 100 | 99 | 78 | 100 | 87 | 99 | 83 | 30 | 76 | 79 | 69 | 78 | 100 | 100 | 91 | 83 | 37 | 51 | % Ctrl (ACVR1): 100 % Ctrl; % Ctrl (p38-gamma): 100 % Ctrl; % Ctrl (NEK1): 96 % Ctrl; % Ctrl (EGFR(L747-T751del, Sins)): 100 % Ctrl; % Ctrl (PYK2): 84 % Ctrl; % Ctrl (VPS34): 65 % Ctrl; % Ctrl (TNK2): 100 % Ctrl; % Ctrl (FLT3(K663Q)): 91 % Ctrl; % Ctrl (GCN2(Kin.Dom.2, S808G)): 88 % Ctrl; % Ctrl (SRPK1): 97 % Ctrl; % Ctrl (NIK): 97 % Ctrl; % Ctrl (CHEK1): 100 % Ctrl; % Ctrl (PIK3CA): 79 % Ctrl; % Ctrl (CSNK1D): 22 % Ctrl; % Ctrl (BMX): 100 % Ctrl
CN(C)C(=O)c1ccc(N2CCCN(c3ccnc4sc(C(N)=O)c(N)c34)CC2)cc1 [15u, 3-amino-4-(4-(4-(dimethylcarbamoyl)phenyl)-1,4-diazepan-1-yl)thieno[2,3-b]pyridine-2-carboxamide] | 100 | 94 | 100 | 99 | 90 | 94 | 99 | 80 | 75 | 68 | 63 | 94 | 83 | 100 | 90 | 100 | 100 | 94 | 67 | 97 | % Ctrl (ACVR1): 100 % Ctrl; % Ctrl (p38-gamma): 98 % Ctrl; % Ctrl (NEK1): 80 % Ctrl; % Ctrl (EGFR(L747-T751del, Sins)): 87 % Ctrl; % Ctrl (PYK2): 97 % Ctrl; % Ctrl (VPS34): 85 % Ctrl; % Ctrl (TNK2): 100 % Ctrl; % Ctrl (FLT3(K663Q)): 96 % Ctrl; % Ctrl (GCN2(Kin.Dom.2, S808G)): 73 % Ctrl; % Ctrl (SRPK1): 100 % Ctrl; % Ctrl (NIK): 100 % Ctrl; % Ctrl (CHEK1): 94 % Ctrl; % Ctrl (PIK3CA): 100 % Ctrl; % Ctrl (CSNK1D): 20 % Ctrl; % Ctrl (BMX): 93 % Ctrl
